The values that follow come from US8013153B2, “Substituted pyrimidine kinase inhibitors” (Janssen Pharmaceutica, N.V., priority 2006, dated 2011).

The target of test [1] is T1, murine Aurora-A (Mus musculus, UniProt P97477).
T1 construct: replaced with the full length protein encoding the murine Aurora-A; made in house; host or cells: sf9 insect cells
T1 sequence (P97477 1-395): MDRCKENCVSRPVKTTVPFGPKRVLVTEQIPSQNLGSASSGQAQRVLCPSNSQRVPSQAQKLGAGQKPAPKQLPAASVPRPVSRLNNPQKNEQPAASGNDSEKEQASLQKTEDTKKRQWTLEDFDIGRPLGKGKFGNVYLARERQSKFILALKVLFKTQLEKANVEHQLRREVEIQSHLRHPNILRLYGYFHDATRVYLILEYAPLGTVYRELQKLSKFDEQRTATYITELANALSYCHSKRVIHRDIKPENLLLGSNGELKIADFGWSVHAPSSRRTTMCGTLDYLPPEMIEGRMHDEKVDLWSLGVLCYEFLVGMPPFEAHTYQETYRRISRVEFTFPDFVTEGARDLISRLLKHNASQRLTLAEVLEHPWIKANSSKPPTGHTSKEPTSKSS
The test can be described thus: Aurora-A Screening Assay. The test is classed as biochemical.

The subject of test [2] is HCT-116 colon carcinoma. As to the kind of experiment: Inhibition of in vitro cell proliferation (HCT116).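 Note: cells exposed to compound for 24 h, then 14C-thymidine added for a further 24 h and its uptake into DNA counted by scintillation, DMSO-only wells as control.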 The test is classed as cell-based, human. As to conditions: Homo sapiens, HCT-116, 14C-thymidine incorporation. For orientation: Uptake of a labelled nucleoside into DNA is a usual measure of proliferation.
The subject of test [3] is A375 malignant melanoma. As to the kind of experiment: Inhibition of in vitro cell proliferation (A375).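 Note: cells plated for 24 h, given compound for 24 h, then labelled with 14C-thymidine for another 24 h, with DMSO-only wells as control and counts read by scintillation.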 The test is classed as cell-based, human. As to conditions: Homo sapiens, A-375, 14C-thymidine incorporation.
In test [4] the test system is HeLa cervical adenocarcinoma. The test can be described thus: Inhibition of in vitro cell proliferation (HeLa).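 Note: cells exposed to compound for 24 h, then labelled 24 h with methyl 14C-thymidine, with uptake into DNA counted by scintillation against DMSO-only control wells.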 The test is classed as cell-based, human. As to conditions: Homo sapiens, 14C-thymidine incorporation.
Test [5] deals with T2, CDK1:Cyclin-B (Homo sapiens, UniProt P06493).
T2 construct: purchased New England Biolabs, Beverly, Mass; 6020; host or cells: insect cells
T2 sequence (P06493 whole entry): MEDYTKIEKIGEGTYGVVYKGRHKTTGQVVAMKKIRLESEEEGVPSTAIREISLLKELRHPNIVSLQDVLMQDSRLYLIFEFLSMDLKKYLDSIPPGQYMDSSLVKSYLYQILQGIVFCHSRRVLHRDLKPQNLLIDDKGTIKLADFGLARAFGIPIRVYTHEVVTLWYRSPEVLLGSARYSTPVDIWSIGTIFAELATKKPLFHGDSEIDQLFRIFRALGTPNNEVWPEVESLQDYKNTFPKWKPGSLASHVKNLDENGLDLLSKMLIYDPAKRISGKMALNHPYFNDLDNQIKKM
T2 sequence (P14635 whole entry partner): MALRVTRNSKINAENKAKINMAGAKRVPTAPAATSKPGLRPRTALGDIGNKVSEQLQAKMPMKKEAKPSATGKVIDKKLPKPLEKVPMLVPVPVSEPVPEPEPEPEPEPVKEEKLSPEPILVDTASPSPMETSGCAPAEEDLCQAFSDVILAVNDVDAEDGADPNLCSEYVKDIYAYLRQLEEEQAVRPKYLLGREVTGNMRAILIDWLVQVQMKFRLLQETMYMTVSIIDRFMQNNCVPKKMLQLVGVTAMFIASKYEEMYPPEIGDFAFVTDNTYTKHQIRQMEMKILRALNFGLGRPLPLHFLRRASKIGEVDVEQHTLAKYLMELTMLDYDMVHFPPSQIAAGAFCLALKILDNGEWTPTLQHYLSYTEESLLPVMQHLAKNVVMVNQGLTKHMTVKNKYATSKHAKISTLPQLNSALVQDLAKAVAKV
As to the kind of experiment: CDK1 Screening Assay. The class given is biochemical.

Test [6] addresses T3, HER2 cytoplasmic domain (Homo sapiens, UniProt P04626).
T3 construct: polyhistidine (N)
The test can be described thus: HER2 Kinase Screening Assay. The test is classed as biochemical. As to conditions: > means no observed 50% inhibition at the indicated test concentration; ~ means approximately 50% inhibition at that concentration.

In test [7] the target is T4, RET cytoplasmic domain (Homo sapiens, UniProt P07949).
T4 construct: the RET cytoplasmic domain consisting of the last 492 amino acids of the intracellular domain; histidine tag (N); made in house; host or cells: Hi5 insect cells
T4 sequence (P07949 658-1114 limits assumed): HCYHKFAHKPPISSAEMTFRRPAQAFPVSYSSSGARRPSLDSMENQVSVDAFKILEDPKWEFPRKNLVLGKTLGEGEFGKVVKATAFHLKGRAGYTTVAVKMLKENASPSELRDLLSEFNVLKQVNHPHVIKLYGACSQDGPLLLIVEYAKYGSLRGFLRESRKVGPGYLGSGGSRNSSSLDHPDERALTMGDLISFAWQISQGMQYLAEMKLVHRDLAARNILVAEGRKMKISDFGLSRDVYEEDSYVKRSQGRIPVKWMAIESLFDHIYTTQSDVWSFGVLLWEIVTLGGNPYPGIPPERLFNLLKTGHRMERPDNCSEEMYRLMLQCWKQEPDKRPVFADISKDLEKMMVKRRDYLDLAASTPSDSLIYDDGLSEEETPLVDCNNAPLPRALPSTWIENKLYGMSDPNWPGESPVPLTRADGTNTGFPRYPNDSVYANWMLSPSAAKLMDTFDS
The test can be described thus: RET Kinase Screening Assay. The class given is biochemical.

Some results are limits rather than exact numbers.

T3 sequence (P04626 676-1255 limits assumed): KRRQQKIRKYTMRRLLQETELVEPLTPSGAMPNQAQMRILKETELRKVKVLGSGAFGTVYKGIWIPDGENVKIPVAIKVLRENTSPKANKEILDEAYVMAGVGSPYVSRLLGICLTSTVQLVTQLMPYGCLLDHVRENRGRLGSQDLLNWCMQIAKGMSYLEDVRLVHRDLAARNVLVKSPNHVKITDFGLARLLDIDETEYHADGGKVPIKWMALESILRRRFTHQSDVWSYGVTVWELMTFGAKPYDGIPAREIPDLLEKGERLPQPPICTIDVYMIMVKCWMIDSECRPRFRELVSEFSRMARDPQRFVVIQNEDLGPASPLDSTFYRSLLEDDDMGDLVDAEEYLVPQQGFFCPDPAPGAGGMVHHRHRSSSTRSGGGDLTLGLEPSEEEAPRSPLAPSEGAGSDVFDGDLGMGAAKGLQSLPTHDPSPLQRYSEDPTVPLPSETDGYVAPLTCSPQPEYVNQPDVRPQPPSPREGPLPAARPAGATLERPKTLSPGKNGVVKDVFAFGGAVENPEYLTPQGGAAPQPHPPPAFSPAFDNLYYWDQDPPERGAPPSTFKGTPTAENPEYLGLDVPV

As a reminder, the IC50 is the concentration needed to halve the response being measured. A high value points to a need for much substance. Turning to `COCCON=Cc1c(N)ncnc1Oc1ccc2[nH]c(C)cc2c1F` [Cpd 28, 4-amino-6-(4-fluoro-2-methyl-1H-indol-5-yloxy)-pyrimidine-5-carbaldehyde O-(2-methoxy-ethyl)-oxime], the IC50 in test [1] is above 100 µM; in test [2] it was 0.387 µM; in test [3], 0.233 µM; in test [4] it was 0.308 µM; in test [5], above 100 µM; in test [6], around 10 µM. This compound came in with a half-inhibitory concentration (IC50) in test [7] above 100 µM.
As to `Cc1cc2c(F)c(Oc3ncnc(N)c3C=NOCCN3CCCC3)ccc2[nH]1` [Cpd 13, 4-amino-6-(4-fluoro-2-methyl-1H-indol-5-yloxy)-pyrimidine-5-carbaldehyde O-(2-pyrrolidin-1yl-ethyl)-oxime], the IC50 in test [1] is around 100 µM; in test [2] it was 4.61 µM; in test [3] it was 2.16 µM; in test [4] it was 4.22 µM; in test [5] it was above 100 µM; in test [6], above 10 µM. In test [7], the half-inhibitory concentration (IC50) was above 100 µM.
As to `CON=Cc1c(N)ncnc1Oc1ccc2ncccc2c1` [Cpd 5, 4-amino-6-(quinolin-6-yloxy)-pyrimidine-5-carbaldehyde O-methyl-oxime], the IC50 was above 10 µM in test [1]; 2.87 µM in test [2]; 1.82 µM in test [3]; 3.43 µM in test [4]; above 100 µM in test [5]; above 100 µM in test [6]. The IC50 in test [7] was determined as 2.01 µM.
For the compound `CON=Cc1c(N)ncnc1Oc1ccc2cccnc2c1` [Cpd 6, 4-amino-6-(quinolin-7-yloxy)-pyrimidine-5-carbaldehyde O-methyl-oxime], the half-maximal inhibitory concentration (IC50) was above 100 µM in test [1]; 2.62 µM in test [2]; 0.886 µM in test [3]; 1.82 µM in test [4]; above 100 µM in test [5]; above 10 µM in test [6]. This compound displayed an IC50 in test [7] above 10 µM.
In the case of `CCCON=Cc1c(N)ncnc1Oc1ccc2[nH]c(C)cc2c1F` [Cpd 34, 4-amino-6-(4-fluoro-2-methyl-1H-indol-5-yloxy)-pyrimidine-5-carbaldehyde O-propyl-oxime], the IC50 is above 100 µM in test [1]; 0.03 µM in test [2]; 0.028 µM in test [3]; 0.04 µM in test [4]; above 100 µM in test [5]; above 100 µM in test [6]. This compound registered a half-maximal inhibitory concentration (IC50) in test [7] of around 10 µM.
As for `CON=Cc1c(N)ncnc1Oc1ccc2[nH]ccc2c1F` [Cpd 7, 4-amino-6-(4-fluoro-1H-indol-5-yloxy)-pyrimidine-5-carbaldehyde O-methyl-oxime], the IC50 in test [1] was above 100 µM; in test [2], 0.365 µM; in test [3], 0.492 µM; in test [4] it was 0.401 µM; in test [5] it was above 100 µM; in test [6] it was 0.653 µM. The compound also registered an IC50 in test [7] above 0.1 µM.
In the case of `CCCCON=Cc1c(N)ncnc1Oc1ccc2[nH]c(C)cc2c1F` [Cpd 37, 4-amino-6-(4-fluoro-2-methyl-1H-indol-5-yloxy)-pyrimidine-5-carbaldehyde O-butyl-oxime], the IC50 in test [1] was above 100 µM; in test [2], 3 µM; in test [3], 0.446 µM; in test [4], 0.607 µM; in test [5], above 100 µM; in test [6] it was above 100 µM. In test [7], this compound had an IC50 above 100 µM.
For `Cc1cc2c(F)c(Oc3ncnc(N)c3C=NOCC3CCCCC3)ccc2[nH]1` [Cpd 35, 4-amino-6-(4-fluoro-2-methyl-1H-indol-5-yloxy)-pyrimidine-5-carbaldehyde O-cyclohexylmethyl-oxime], the IC50 was above 100 µM in test [1]; 16.1 µM in test [2]; 4.92 µM in test [3]; 22.7 µM in test [4]; above 100 µM in test [5]; above 100 µM in test [6]. Besides, the IC50 in test [7] is above 100 µM.
Regarding `CNCCON=Cc1c(N)ncnc1Oc1ccc2[nH]c(C)cc2c1F` [Cpd 16, 4-amino-6-(4-fluoro-2-methyl-1H-indol-5-yloxy)-pyrimidine-5-carbaldehyde O-(2-methylamino-ethyl)-oxime], the concentration for half-maximal inhibition (IC50) was above 100 µM in test [1]; 3.04 µM in test [2]; 0.345 µM in test [3]; 2.01 µM in test [4]; above 100 µM in test [5]; 10.9 µM in test [6]. Also, the IC50 in test [7] is above 100 µM.
Turning to `CON=Cc1c(N)ncnc1Oc1cc2cc[nH]c2cc1F` [Cpd 8, 4-amino-6-(6-fluoro-1H-indol-5-yloxy)-pyrimidine-5-carbaldehyde O-methyl-oxime], the IC50 in test [1] is above 10 µM; in test [2], 0.422 µM; in test [3], 0.327 µM; in test [4], 0.382 µM; in test [5] it was above 100 µM; in test [6] it was above 1 µM. For the same compound, in test [7], the IC50 is above 1 µM.
In the case of `CON=Cc1c(N)ncnc1Oc1ccc2[nH]cc(C)c2c1` [Cpd 9, 4-amino-6-(3-methyl-1H-indol-5-yloxy)-pyrimidine-5-carbaldehyde O-methyl-oxime], the IC50 in test [1] is above 10 µM; in test [2], 0.385 µM; in test [3], 0.132 µM; in test [4], 0.306 µM; in test [5], above 100 µM; in test [6], 0.208 µM. The same compound returned an IC50 in test [7] above 100 µM.
Consider `Cc1cc2c(F)c(Oc3ncnc(N)c3C=NOCCCO)ccc2[nH]1` [Cpd 29, 4-amino-6-(4-fluoro-2-methyl-1H-indol-5-yloxy)-pyrimidine-5-carbaldehyde O-(3-hydroxy-propyl)-oxime], for which the IC50 was above 10 µM in test [1]; 0.452 µM in test [2]; 0.336 µM in test [3]; 0.362 µM in test [4]; above 100 µM in test [5]; 4.63 µM in test [6]. This compound showed an IC50 in test [7] above 10 µM.
Turning to `Cc1cc2c(F)c(Oc3ncnc(N)c3C=NOCCO)ccc2[nH]1` [Cpd 12, 4-amino-6-(4-fluoro-2-methyl-1H-indol-5-yloxy)-pyrimidine-5-carbaldehyde O-(2-hydroxy-ethyl)-oxime], the IC50 is around 100 µM in test [1]; 0.323 µM in test [2]; 0.372 µM in test [3]; 0.406 µM in test [4]; above 100 µM in test [5]; 9.59 µM in test [6]. Besides, the 50% inhibitory concentration (IC50) in test [7] is above 10 µM.
For `CCON=Cc1c(N)ncnc1Oc1ccc2[nH]c(C)cc2c1F` [Cpd 1, 4-amino-6-(4-fluoro-2-methyl-1H-indol-5-yloxy)-pyrimidine-5-carbaldehyde O-ethyl-oxime], the IC50 is above 100 µM in test [1]; 0.036 µM in test [2]; 0.027 µM in test [3]; 0.032 µM in test [4]; above 100 µM in test [5]; above 100 µM in test [6]. In test [7], this compound displayed a half-maximal inhibitory concentration (IC50) above 100 µM.
As to `Cc1cc2c(F)c(Oc3ncnc(N)c3C=NOCc3ccccc3)ccc2[nH]1` [Cpd 36, 4-amino-6-(4-fluoro-2-methyl-1H-indol-5-yloxy)-pyrimidine-5-carbaldehyde O-benzyl-oxime], the IC50 in test [1] was above 100 µM; in test [2], 0.311 µM; in test [3], 0.062 µM; in test [4], 0.266 µM; in test [5], above 100 µM; in test [6], above 100 µM. In test [7], the half-inhibitory concentration (IC50) is above 100 µM.
